Measurements from PubChem BioAssay AID248 (DTP/NCI, 2004).
Inconclusive results and toxic doses are left out.

Test system: L1210 leukemia ip in BDF1 mice, survival T/C
Assay: NCI In Vivo Anticancer Drug Screen. Data for tumor model L1210 Leukemia (intraperitoneal) in B6D2F1 (BDF1) mice
Conditions: endpoint: mean survival time, higher = longer survival
Procedure, shortened: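 Read-out is survival time, reported as the treated-group measurement over the vehicle-control measurement.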

[1] = dose: 50.0 mg/kg/injection, schedule: Q01DX001 (ip), vehicle: saline
[2] = dose: 100.0 mg/kg/injection, schedule: Q01DX001 (ip), vehicle: saline
[3] = dose: 200.0 mg/kg/injection, schedule: Q01DX001 (ip), vehicle: saline
[4] = dose: 400.0 mg/kg/injection, schedule: Q01DX001 (ip), vehicle: saline

`N#C/C(=C\c1cccc2ccccc12)c1ccc(Cl)cc1` was tested, and the T/C (dose: 87.5 mg/kg/injection, schedule: Q01DX009 (ip), vehicle: Klucel (hydroxypropylcellulose) (HPC)) was 95 % of control, the T/C (dose: 175.0 mg/kg/injection, schedule: Q01DX009 (ip), vehicle: Klucel (hydroxypropylcellulose) (HPC)) was 96 % of control and the T/C (dose: 350.0 mg/kg/injection, schedule: Q01DX009 (ip), vehicle: Klucel (hydroxypropylcellulose) (HPC)) was 97 % of control.

With `CN=C(NC)NN` the T/C (dose: 30.0 mg/kg/injection, schedule: Q01DX Z (ip), vehicle: methylcellulose (MC)) was 100 % of control, the T/C (dose: 60.0 mg/kg/injection, schedule: Q01DX Z (ip), vehicle: methylcellulose (MC)) was 103 % of control and the T/C (dose: 100.0 mg/kg/injection, schedule: Q04DX002 (ip), vehicle: saline with Tween-80) was 95 % of control. The T/C (dose: 125.0 mg/kg/injection, schedule: Q01DX Z (oral), vehicle: methylcellulose (MC)) was 101 % of control, the T/C (dose: 200.0 mg/kg/injection, schedule: Q04DX002 (ip), vehicle: saline with Tween-80) was 95 % of control and the T/C (dose: 240.0 mg/kg/injection, schedule: Q01DX Z (ip), vehicle: methylcellulose (MC)) was 108 % of control. For the same molecule, the T/C (dose: 250.0 mg/kg/injection, schedule: Q01DX Z (oral), vehicle: methylcellulose (MC)) was 95 % of control, the T/C (dose: 270.0 mg/kg/injection, schedule: Q01DX Z (ip), vehicle: saline) was 105 % of control and the T/C (dose: 375.0 mg/kg/injection, schedule: Q01DX Z (ip), vehicle: methylcellulose (MC)) was 110 % of control. For the same molecule, the T/C (dose: 400.0 mg/kg/injection, schedule: Q04DX002 (ip), vehicle: saline with Tween-80) was 100 % of control, the T/C (dose: 405.0 mg/kg/injection, schedule: Q01DX Z (ip), vehicle: saline) was 97 % of control and the T/C (dose: 480.0 mg/kg/injection, schedule: Q01DX Z (ip), vehicle: methylcellulose (MC)) was 102 % of control. For the same molecule, the T/C (dose: 609.0 mg/kg/injection, schedule: Q01DX Z (ip), vehicle: saline) was 103 % of control.

`Cc1ccc(-c2cc(-c3ccccc3)n(-c3ccccc3)n2)cc1` was tested, and the T/C (dose: 100.0 mg/kg/injection, schedule: Q01DX009 (ip), vehicle: other) was 103 % of control, the T/C (dose: 200.0 mg/kg/injection, schedule: Q01DX009 (ip), vehicle: other) was 96 % of control and the T/C (dose: 400.0 mg/kg/injection, schedule: Q01DX009 (ip), vehicle: other) was 95 % of control.

For `N#CC1CC(c2ccccc2)Nc2ccccc2N1` (stereo not drawn), the T/C (dose: 100.0 mg/kg/injection, schedule: Q04DX003 (ip), vehicle: Klucel (hydroxypropylcellulose) (HPC)) was 94 % of control, the T/C (dose: 200.0 mg/kg/injection, schedule: Q04DX003 (ip), vehicle: Klucel (hydroxypropylcellulose) (HPC)) was 98 % of control and the T/C (dose: 400.0 mg/kg/injection, schedule: Q04DX003 (ip), vehicle: Klucel (hydroxypropylcellulose) (HPC)) was 96 % of control.

`NCCCC(=O)NCCCCCCNCCCCCCNC(=O)CCCN` was tested, and the T/C [1] was 98 % of control and the T/C [2] was 104 % of control.

With `CCN(CCNC(C)(C)[P+](=O)O)c1ccccc1` the T/C (dose: 75.0 mg/kg/injection, schedule: Q04DX003 (ip), vehicle: Klucel (hydroxypropylcellulose) (HPC)) was 100 % of control, the T/C [2] was 105 % of control and the T/C (dose: 150.0 mg/kg/injection, schedule: Q04DX003 (ip), vehicle: Klucel (hydroxypropylcellulose) (HPC)) was 96 % of control. For the same molecule, the T/C [3] was 105 % of control, the T/C (dose: 300.0 mg/kg/injection, schedule: Q04DX003 (ip), vehicle: Klucel (hydroxypropylcellulose) (HPC)) was 110 % of control and the T/C [4] was 102 % of control.

`NC(N)=Nc1ccc(-c2ccc(N=C(N)N)cc2)cc1` was tested, and the T/C (dose: 12.5 mg/kg/injection, schedule: Q01DX Z (oral), vehicle: saline) was 97 % of control, the T/C (dose: 25.0 mg/kg/injection, schedule: Q01DX Z (oral), vehicle: saline) was 106 % of control and the T/C (dose: 50.0 mg/kg/injection, schedule: Q01DX Z (oral), vehicle: saline) was 101 % of control. The T/C (dose: 100.0 mg/kg/injection, schedule: Q01DX Z (oral), vehicle: saline) was 105 % of control and the T/C (dose: 200.0 mg/kg/injection, schedule: Q01DX Z (oral), vehicle: saline) was 100 % of control.

For `O=C(NCCc1ccccc1)C1CCN(CCc2ccccc2)CC1`, the T/C (dose: 100.0 mg/kg/injection, schedule: Q01DX001 (ip), vehicle: other) was 107 % of control.

`O=C(O)c1cc(=O)[nH]c(=O)[nH]1` was tested, and the T/C (dose: 100.0 mg/kg/injection, schedule: Q04DX002 (ip), vehicle: Klucel (hydroxypropylcellulose) (HPC)) was 100 % of control.

In the case of `Cc1ccn2c(=O)c(CCBr)c(C)nc2c1`, the T/C (dose: 4.7 mg/kg/injection, schedule: Q01DX009 (ip), vehicle: saline) is reported as 101 % of control, the T/C (dose: 9.4 mg/kg/injection, schedule: Q01DX009 (ip), vehicle: saline) is reported as 100 % of control and the T/C (dose: 18.8 mg/kg/injection, schedule: Q01DX009 (ip), vehicle: saline) is reported as 91 % of control. The T/C (dose: 18.8 mg/kg/injection, schedule: Q04DX003 (ip), vehicle: saline) was 94 % of control.

In the case of `CC(=O)Nc1ccn(C2OC(COC(C)=O)C(OC3OC4COC(c5ccccc5)OC4C(OC(C)=O)C3OC(C)=O)C(OC(C)=O)C2OC(C)=O)c(=O)n1` (stereo not drawn), the T/C (dose: 22.5 mg/kg/injection, schedule: Q01DX001 (ip), vehicle: carboxymethylcellulose (CMC)) is reported as 97 % of control, the T/C (dose: 45.0 mg/kg/injection, schedule: Q01DX001 (ip), vehicle: carboxymethylcellulose (CMC)) is reported as 103 % of control and the T/C (dose: 90.0 mg/kg/injection, schedule: Q01DX001 (ip), vehicle: carboxymethylcellulose (CMC)) is reported as 92 % of control. The T/C (dose: 180.0 mg/kg/injection, schedule: Q01DX001 (ip), vehicle: carboxymethylcellulose (CMC)) was 97 % of control.

In the case of `Oc1ccccc1Sc1ccccc1O`, the T/C [2] is reported as 92 % of control and the T/C [4] is reported as 97 % of control.

`O=C(CBr)c1cccnc1` was tested, and the T/C (dose: 6.25 mg/kg/injection, schedule: Q01DX009 (ip), vehicle: saline) was 98 % of control and the T/C (dose: 12.5 mg/kg/injection, schedule: Q01DX009 (ip), vehicle: saline) was 98 % of control.

For `O=[N+]([O-])c1cccc(OCCCOc2cccc([N+](=O)[O-])c2)c1`, the T/C [2] was 103 % of control, the T/C [3] was 102 % of control and the T/C [4] was 100 % of control.

`NC(N)=NCCCS` was tested, and the T/C (dose: 75.0 mg/kg/injection, schedule: Q01DX001 (ip), vehicle: saline) was 104 % of control, the T/C (dose: 150.0 mg/kg/injection, schedule: Q01DX001 (ip), vehicle: saline) was 104 % of control and the T/C (dose: 300.0 mg/kg/injection, schedule: Q01DX001 (ip), vehicle: saline) was 104 % of control.

`O=C(CCCNC(=O)OCc1ccccc1)NCCCCCCNCCCCCCNC(=O)CCCNC(=O)OCc1ccccc1` was tested, and the T/C [1] was 95 % of control, the T/C [2] was 95 % of control and the T/C [3] was 98 % of control. For the same molecule, the T/C [4] was 98 % of control.

`O=[N+]([O-])c1cc(N(c2ccccc2)c2ccccc2)cc([N+](=O)[O-])c1` was tested, and the T/C (dose: 100.0 mg/kg/injection, schedule: Q01DX001 (ip), vehicle: carboxymethylcellulose (CMC)) was 103 % of control, the T/C (dose: 200.0 mg/kg/injection, schedule: Q01DX001 (ip), vehicle: carboxymethylcellulose (CMC)) was 108 % of control and the T/C (dose: 400.0 mg/kg/injection, schedule: Q01DX001 (ip), vehicle: carboxymethylcellulose (CMC)) was 103 % of control.

`CCOC(=O)c1cc(Br)c(O)c(Br)c1` was tested, and the T/C (dose: 50.0 mg/kg/injection, schedule: Q01DX009 (ip), vehicle: Klucel (hydroxypropylcellulose) (HPC)) was 95 % of control and the T/C (dose: 100.0 mg/kg/injection, schedule: Q01DX009 (ip), vehicle: Klucel (hydroxypropylcellulose) (HPC)) was 91 % of control.

In the case of `N#CC1(C(=O)c2ccccc2)C=Cc2ccccc2N1C(=O)c1ccccc1` (stereo not drawn), the T/C (dose: 100.0 mg/kg/injection, schedule: Q01DX001 (ip), vehicle: steriod suspending solution) is reported as 87 % of control, the T/C (dose: 200.0 mg/kg/injection, schedule: Q01DX001 (ip), vehicle: steriod suspending solution) is reported as 90 % of control and the T/C (dose: 400.0 mg/kg/injection, schedule: Q01DX001 (ip), vehicle: steriod suspending solution) is reported as 92 % of control.

For `Nc1nc(O)c(NC(=O)Nc2ccccc2)c(=O)[nH]1`, the T/C (dose: 100.0 mg/kg/injection, schedule: Q04DX003 (ip), vehicle: gum acacia) was 102 % of control, the T/C (dose: 200.0 mg/kg/injection, schedule: Q04DX003 (ip), vehicle: gum acacia) was 100 % of control and the T/C (dose: 400.0 mg/kg/injection, schedule: Q04DX003 (ip), vehicle: gum acacia) was 105 % of control.

For `CN=C(N)c1ccc(N=C(N)c2ccc(-c3ccc(C(N)=Nc4ccc(C(N)=NC)cc4)cc3)cc2)cc1`, the T/C (dose: 2.25 mg/kg/injection, schedule: Q01DX Z (ip), vehicle: carboxymethylcellulose (CMC)) was 109 % of control, the T/C (dose: 4.5 mg/kg/injection, schedule: Q01DX Z (ip), vehicle: carboxymethylcellulose (CMC)) was 115 % of control and the T/C (dose: 18.0 mg/kg/injection, schedule: Q01DX Z (ip), vehicle: carboxymethylcellulose (CMC)) was 184 % of control. The T/C (dose: 50.0 mg/kg/injection, schedule: Q01DX Z (oral), vehicle: water) was 101 % of control, the T/C (dose: 100.0 mg/kg/injection, schedule: Q01DX Z (oral), vehicle: water) was 112 % of control and the T/C (dose: 200.0 mg/kg/injection, schedule: Q01DX Z (oral), vehicle: water) was 107 % of control.

In the case of `CCOC(=O)c1cc(C=O)nc2c(Cl)cc(Cl)cc12`, the T/C (dose: 100.0 mg/kg/injection, schedule: Q01DX009 (ip), vehicle: saline with Tween-80) is reported as 89 % of control and the T/C (dose: 200.0 mg/kg/injection, schedule: Q01DX009 (ip), vehicle: saline with Tween-80) is reported as 92 % of control.
